In BindingDB's records for doi:10.7270/Q2N014XN (Srmlsc, 2007) one finds IC50 data, which are given here for 45 molecules.

The first assay deals with T1, Diphosphomevalonate decarboxylase (Streptococcus pneumoniae serotype 2 (strain D39 / NCTC 7466), UniProt A0A0H2ZN59).
T1 sequence (A0A0H2ZN59 whole entry): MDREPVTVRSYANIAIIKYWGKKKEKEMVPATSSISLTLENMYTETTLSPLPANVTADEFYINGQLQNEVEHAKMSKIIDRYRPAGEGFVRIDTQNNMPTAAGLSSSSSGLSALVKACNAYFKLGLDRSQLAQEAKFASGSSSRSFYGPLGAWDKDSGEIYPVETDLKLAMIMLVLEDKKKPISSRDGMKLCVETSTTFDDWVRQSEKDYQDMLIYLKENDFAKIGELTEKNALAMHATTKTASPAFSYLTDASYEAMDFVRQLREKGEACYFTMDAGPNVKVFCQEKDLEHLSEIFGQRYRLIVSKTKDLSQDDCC
The assay is described as follows: S. pneumoniae DPM-DC inhibitor potency, dose response, biochemical, PK/LDH-coupled NADH fluorescence, hexokinase coupling counter-screen (AID 550).
Conditions: not given
For the molecule `O=C(CN1c2cccc3cccc(c23)S1(=O)=O)N1CCOCC1` [2-[2-(4-morpholinyl)-2-oxoethyl]-2H-naphtho[1,8-cd]isothiazole 1,1-dioxide], the concentration for half-maximal inhibition (IC50) was 21.9 µM. For `COc1ccc(-c2cc(C(=O)OCC(=O)N(C)C)c3ccccc3n2)cc1` [2-(4-methoxyphenyl)-4-quinolinecarboxylic acid [2-(dimethylamino)-2-oxoethyl] ester], the IC50 worked out at 41.1 µM. Molecule `Cc1ccc(C2C3=C(CC(C)(C)CC3=O)N(CCN3CCOCC3)C3=C2C(=O)CC(C)(C)C3)cc1` came in with a half-inhibitory concentration (IC50) above 10000 µM. On the same count and under the same terms, the figure for `CCOC(=O)c1cc2c(=O)n(C)c3ccccc3c2s1` [4-keto-5-methyl-thieno[3,2-c]quinoline-2-carboxylic acid ethyl ester] is above 10000 µM. The same measure, in the same setting: to `Cc1ccc(-n2sc3ccccc3c2=O)cc1S(=O)(=O)N1CCCCC1` [2-(4-methyl-3-piperidin-1-ylsulfonyl-phenyl)-1,2-benzothiazol-3-one] belongs 3.73 µM; to `CCc1cc(C(Cc2ccc3ccccc3n2)N=O)c(O)cc1O` (stereo not given) [(6Z)-4-ethyl-3-hydroxy-6-[1-(hydroxyamino)-2-(2-quinolinyl)ethylidene]-1-cyclohexa-2,4-dienone], above 10000 µM; to `COCCNC(=O)c1cnn2c(C(F)(F)F)cc(-c3ccc4c(c3)OCO4)nc12` [5-(1,3-benzodioxol-5-yl)-N-(2-methoxyethyl)-7-(trifluoromethyl)-3-pyrazolo[1,5-a]pyrimidinecarboxamide], above 10000 µM. On the same count and under the same terms, to `COC(=O)c1sc2nc(-c3ccco3)ccc2c1N` [3-amino-6-(2-furanyl)-2-thieno[2,3-b]pyridinecarboxylic acid methyl ester] belongs 28.7 µM; to `CC(C)(C)n1nnnc1C(c1cc2cc3c(cc2[nH]c1=O)OCO3)N1CCN(c2ccccc2)CC1` (stereo not given) [7-[(1-tert-butyl-1,2,3,4-tetrazol-5-yl)-(4-phenylpiperazin-1-yl)methyl]-5H-[1,3]dioxolo[4,5-g]quinolin-6-one], 57 µM; to `CCOC(=O)c1sc2nc(SCC(=O)NCc3ccco3)n(Cc3ccccc3)c(=O)c2c1C` [2-[[2-(2-furanylmethylamino)-2-oxoethyl]thio]-5-methyl-4-oxo-3-(phenylmethyl)-6-thieno[2,3-d]pyrimidinecarboxylic acid ethyl ester], 84.7 µM. On to `O=C1C(Cl)=C(NCC2CCCO2)C(=O)N1Cc1ccccc1` (stereo not given) [1-Benzyl-3-chloro-4-[(tetrahydro-furan-2-ylmethyl)-amino]-pyrrole-2,5-dione], for which the IC50 is above 10000 µM.

As for `Cc1cc(C)c(S(=O)(=O)NCc2cn3c(C)csc3n2)cc1C` [2,4,5-trimethyl-N-[(3-methyl-6-imidazo[2,1-b]thiazolyl)methyl]benzenesulfonamide], the IC50 is above 10000 µM. Same read-out and setting: to `COc1cc2c(cc1OC)CN(C(=O)CSc1nnc3scc(-c4ccccc4)n13)CC2` [1-(6,7-dimethoxy-3,4-dihydro-1H-isoquinolin-2-yl)-2-[(5-phenyl-3-thiazolo[2,3-c][1,2,4]triazolyl)thio]ethanone] belongs 584 µM.

The molecule `COC(=O)c1cc2occc2n1CC(=O)Nc1ccc(OC)c(OC)c1OC` [4-[2-keto-2-(2,3,4-trimethoxyanilino)ethyl]furo[3,2-b]pyrrole-5-carboxylic acid methyl ester] gave an IC50 above 10000 µM. The same measure, in the same setting: to `Cc1ccc(S(=O)(=O)c2cc3c(=O)n4ccccc4nc3n(CC3CCCO3)c2=N)cc1C` (stereo not given) [2-azanylidene-3-(3,4-dimethylphenyl)sulfonyl-1-(oxolan-2-ylmethyl)dipyrido[1,2-d:3',4'-f]pyrimidin-5-one] belongs 43.6 µM; to `COC(=O)c1cc(NCc2c(F)cccc2Cl)ccc1N1CCOCC1` [5-[(2-chloro-6-fluoro-benzyl)amino]-2-morpholino-benzoic acid methyl ester], 80.4 µM. On the same count and under the same terms, to `N#Cc1c(NCCO)nc(NCc2ccccc2)c2c1CCN(Cc1ccccc1)C2` [3-(2-hydroxyethylamino)-7-(phenylmethyl)-1-[(phenylmethyl)amino]-6,8-dihydro-5H-2,7-naphthyridine-4-carbonitrile] belongs 38.6 µM; to `Cc1ccc2cc3c(NC(=O)c4ccco4)nn(C)c3nc2c1` [MLS000041273], 45.7 µM. The same measure, in the same setting: to `Cc1cc(=O)oc2ccc(OCC(=O)N3CCC(C)CC3)cc12` [4-methyl-6-[2-(4-methyl-1-piperidinyl)-2-oxoethoxy]-1-benzopyran-2-one] belongs 213 µM; to `COC(=O)c1ccc(Nc2cc(C)nc(-c3ccccc3O)n2)cc1` [4-[[(2E)-2-(6-ketocyclohexa-2,4-dien-1-ylidene)-6-methyl-1H-pyrimidin-4-yl]amino]benzoic acid methyl ester], 18.6 µM. With `Nc1c(C(=O)NC2CCCC2)sc2nc(-c3cccs3)ccc12` [3-Amino-6-thiophen-2-yl-thieno[2,3-b]pyridine-2-carboxylic acid cyclopentylamide], the IC50 was determined as 172 µM. The same measure, in the same setting: to `CN(C)C(=O)N1CCC(C(=O)NCc2cccs2)CC1` [1-N,1-N-dimethyl-4-N-(thiophen-2-ylmethyl)piperidine-1,4-dicarboxamide] belongs above 10000 µM. The same measure, in the same setting: to `O=C(CSc1nnc2ccccn12)Nc1ccccc1C(=O)NC1CC1` [MLS000056825] belongs above 10000 µM; to `COCCn1nnnc1CN(Cc1cccnc1)Cc1cc2cc(OC)ccc2[nH]c1=O` [6-methoxy-3-[[[1-(2-methoxyethyl)-5-tetrazolyl]methyl-(3-pyridinylmethyl)amino]methyl]-1H-quinolin-2-one], above 10000 µM; to `CCN(CC)CCCN(Cc1cc2cc3c(cc2[nH]c1=O)OCO3)C(=O)Nc1ccccc1OC` [1-[3-(diethylamino)propyl]-3-(2-methoxyphenyl)-1-[(6-oxidanylidene-5H-[1,3]dioxolo[4,5-g]quinolin-7-yl)methyl]urea], 33.7 µM. On the same count and under the same terms, the figure for `COC(=O)c1cc(Cl)c(NS(=O)(=O)c2ccccc2)cc1OC` [4-(benzenesulfonamido)-5-chloro-2-methoxy-benzoic acid methyl ester] is 32.2 µM. For `CN(C)CCSc1nnc(-c2ccccc2)o1`, the IC50 was above 10000 µM. The same measure, in the same setting: the figure for `Cn1c(N2CCOCC2)nc(-c2ccccc2)c1-c1ccccc1` [4-(1-methyl-4,5-diphenyl-2-imidazolyl)morpholine] is 40.8 µM; for `CCOC(=O)N1CCC(NC(=O)CSc2cc(=O)n(C)c3ccccc23)CC1` [4-[[2-[(1-methyl-2-oxo-4-quinolinyl)thio]-1-oxoethyl]amino]-1-piperidinecarboxylic acid ethyl ester] it is 399 µM. On the same count and under the same terms, the figure for `CCCn1c(=O)c2ccccc2n2c(SCC(=O)C(C#N)C(C)=N)nnc12` (stereo not given) [(E)-3-amino-2-[1-oxo-2-[(5-oxo-4-propyl-[1,2,4]triazolo[4,3-a]quinazolin-1-yl)thio]ethyl]-2-butenenitrile] is above 10000 µM; for `COc1ccc(-c2nn3c(-c4ccco4)nnc3s2)cc1OC` [6-(3,4-dimethoxyphenyl)-3-(2-furanyl)-[1,2,4]triazolo[3,4-b][1,3,4]thiadiazole] it is 235 µM; for `CCn1c2ccccc2c2nc3cc(OC)c(OC)cc3nc21` [6-Ethyl-2,3-dimethoxy-6H-indolo[2,3-b]quinoxaline] it is 30.6 µM. As to `Cc1cc(N2CCN(C3CCCC3)CC2)n2nc(C)c(-c3ccccc3)c2n1` [7-(4-cyclopentyl-1-piperazinyl)-2,5-dimethyl-3-phenylpyrazolo[1,5-a]pyrimidine], the concentration for half-maximal inhibition (IC50) is above 10000 µM. The same measure, in the same setting: the figure for `CCOC(=O)c1cc2c(=O)n3ccccc3nc2n(C(C)C)/c1=N\C(=O)c1ccncc1` [2-isonicotinoylimino-1-isopropyl-5-keto-dipyrido[1,2-d:3',4'-f]pyrimidine-3-carboxylic acid ethyl ester] is 15.2 µM; for `OCCNc1ncnc2c1c(-c1ccccc1)c(-c1ccccc1)n2Cc1ccco1` [2-[[7-(2-furanylmethyl)-5,6-diphenyl-4-pyrrolo[2,3-d]pyrimidinyl]amino]ethanol] it is above 10000 µM.

`Cc1cccc(C(=O)Nc2cc(=O)n(C)c(=O)n2C)c1` [MLS000103605] yielded a 50% inhibitory concentration (IC50) above 10000 µM. Molecule `CCCC(=O)Nc1ccc(N2CCN(C(=O)CCC)CC2)cc1` [MLS000034431] gave an IC50 above 10000 µM. The same measure, in the same setting: to `Cc1cccc(Nc2nnc(S)s2)c1C` [5-(2,3-dimethylanilino)-3H-1,3,4-thiadiazole-2-thione] belongs 188 µM; to `CC(C)(C)CC(=O)Nc1nnc(-c2cccs2)s1` [3,3-Dimethyl-N-(5-thiophen-2-yl-[1,3,4]thiadiazol-2-yl)-butyramide], above 10000 µM. Same read-out and setting: the figure for `N#Cc1c(C(F)(F)F)cc(-c2ccco2)nc1SCc1ccncc1` [6-(2-furanyl)-2-(pyridin-4-ylmethylthio)-4-(trifluoromethyl)-3-pyridinecarbonitrile] is above 10000 µM; for `O=C(NCc1cccnc1)c1ccc2c(=O)n(CCCN3CCCC3=O)c(=S)[nH]c2c1` [4-oxidanylidene-3-[3-(2-oxidanylidenepyrrolidin-1-yl)propyl]-N-(pyridin-3-ylmethyl)-2-sulfanylidene-1H-quinazoline-7-carboxamide] it is above 10000 µM; for `COc1cccc2cc3c(=O)n(-c4ccccc4)nc-3oc12` [8-methoxy-2-phenyl-3-[1]benzopyrano[2,3-c]pyrazolone] it is above 10000 µM. The same measure, in the same setting: to `CC(C)CNC(=O)COc1ccc2c3c(c(=O)oc2c1)CCC3` [MLS000054673] belongs 65.4 µM.

Staying with this assay, now noted: inactive by the depositor's call.
As to `CCC(=O)Oc1ccc2c(C)cc(=O)oc2c1C` [(4,8-dimethyl-2-oxidanylidene-chromen-7-yl) propanoate], the IC50 was determined as 29.9 µM. As for `O=c1c2ccccc2[se]n1-c1ccccc1` [2-Phenyl-benzo[d]isoselenazol-3-one], the IC50 worked out at 0.513 µM.

By IC50 is commonly meant the point on the concentration scale where inhibition reaches its midpoint. A lower IC50 goes with inhibition by little substance.
